Several values for one entry are separate records, joined by “and”; a condition that tells them apart may be missing. Equal values may be shown once. Read-outs that look alike come from different tables or passages of the source.
Legend:
PPARγ1 = molecular target: T1, PPARγ1 (Homo sapiens, UniProt P37231); assay: PPRE-Luciferase reporter transactivation in HEK293 cells expressing PPARγ1; assay type: cell-based; settings: for Efficacy: PPARγ transactivation with respect to the full agonist RGZ taken as 100%; for EC50: PPARγ transactivation, PPRE-Luc reporter, HEK293 expressing PPARγ1, 24 hs treatment
T1 construct: a fixed and higher amount of an exogenous, full length PPARγ1; expressed in transfected cells
T1 sequence (P37231 1-477 isoform P37231-2): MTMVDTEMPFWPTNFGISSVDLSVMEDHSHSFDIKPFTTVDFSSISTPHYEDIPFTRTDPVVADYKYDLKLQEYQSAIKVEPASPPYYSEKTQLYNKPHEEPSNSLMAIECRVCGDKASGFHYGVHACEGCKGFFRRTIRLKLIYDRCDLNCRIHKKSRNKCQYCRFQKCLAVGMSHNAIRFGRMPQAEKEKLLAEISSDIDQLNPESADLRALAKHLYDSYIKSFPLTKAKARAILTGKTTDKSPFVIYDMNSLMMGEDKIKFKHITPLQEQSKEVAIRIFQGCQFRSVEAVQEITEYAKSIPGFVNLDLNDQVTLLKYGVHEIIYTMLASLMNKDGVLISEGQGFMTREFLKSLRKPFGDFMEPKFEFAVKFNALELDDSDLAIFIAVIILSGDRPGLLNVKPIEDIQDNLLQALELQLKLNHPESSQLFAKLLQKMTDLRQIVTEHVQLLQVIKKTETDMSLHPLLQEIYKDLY
Method: These cells were selected as a model system because they express low levels of the endogenous PPAR subtypes and a fixed and higher amount of an exogenous, full length PPARγ1; the differences in luciferase activity can, thus, be referred to PPARγ1 and to the different ligands used. Twenty-four hours after transfection, cells were treated for additional 24 hs with increasing doses of each compound (Table 2).
HEK293 cells that stably express an exogenous Flag-tagged PPARγ1 from a transfected PCDNA-3 vector carrying a complete PPARγ cDNA were used for transfection experiments. PPRE-Luc plasmid contains a luciferase reporter gene whose transcription is driven by the herpes simplex thymidine kinase (TK) promoter including three copies of the PPRE designed on the sequence of Acyl-CoA oxidase gene. […] The day before transfection, HEK293 stably expressing FLAG-PPARγ1 were plated in 12-well plates to reach 70% confluence. After 24 hs, growth medium was removed and substitute with OPTI-MEM, in absence of serum and antibiotics, and cells were transfected with the luciferase reporter gene (PPRE-Luc) using lipofectamine 2000 reagent as described. […] Transfection assays were performed in triplicate and the resulting transcriptional activities measured by luciferase assay. The values were normalized by β-galactosidase assay and the average value for each triplicate was calculated.

HT-29 cells [1] = assay: Cell cycle analysis by flow cytometry (propidium iodide) in HT-29 cells; assay type: cell-based, human; settings: 1 to 25 µM, 48 hs, FACS
Method: We then investigated the cell cycle changes underlying the growth inhibition caused by (R,S)-3, (S)-3 and (R,S)-7 treatment. To this goal, HT-29 cells were cultured in proliferating medium for 24 hs and exposed for additional 48 hs to a medium containing different concentrations of the three compounds.
(§1) Data are means ± SD of two independent experiments. *p ≤ 0.05, **p ≤ 0.01 compared to the control. (B) Proliferating HT-29 cells were treated or not for 48 hs with 10 µM of the indicated compounds. Protein extracts were prepared and assessed for p21^waf1/cip1 expression in Western blotting analysis. β-Actin was used for protein load normalization. The bar graphs are the mean ± SD of three independent experiments. **p ≤ 0.01 compared to the control.
(§2) HT-29 cells were plated at similar confluency and synchronized by a 48 h serum deprivation in 0.1% FBS. […] At same time, another aliquot of cells was allowed to grow again in the complete medium containing 0,1% DMSO for the same times and was used as control. After treatment, DNA cell content was evaluated by FACS analysis as previously described. Evaluation of apoptotic cells was performed by staining cell treated or not with 10 μM of the indicated compounds for 48 hs with Annexin5-V-Fitc and propidium iodide. All flow cytometry results were analyzed by FACSuite Software.

p21^waf1/cip1 [2] = assay: Western blotting of p21waf1/cip1 in HT-29 cells; assay type: cell-based, human; settings: 10 µM, 48 hs
Method: as §1
(§3) To better characterize the growth inhibition elicited by (R,S)-3, (S)-3 and (R,S)-7, we examined changes in the expression of proteins involved in cell cycle control (Figs 1B and 2A). […] The results paralleled those of the corresponding proteins and all together correlated with the flow cytometric data obtained in the same experimental conditions as reported in Fig. 1.
(§4) Total extracts from treated and untreated cells were obtained by lysis in Ripa buffer (150 mM NaCl, 50 mM Tris-HCl, pH 7.6, 10 mM EDTA, 1% NP-40) containing also a protease inhibitors cocktail and then centrifugated at 17,000 RCF for 10 min, at 4 °C. Total proteins in the supernatant were quantified and 80 μg of each sample were loaded on SDS-PAGE. Western blotting assays were carried out as previously reported.

cyclin D1 = assay: Western blotting of cyclin D1 in HT-29 cells; assay type: cell-based, human; settings: 10 µM, 48 hs
Method: as §3
Proliferating HT-29 cells were treated for 48 hs with 10 µM of the indicated compounds. Specific antibodies against cyclin D1 (A), c-Myc (B), β-catenin (C) and PPARγ (D) respectively, were used in Western blotting analysis. An anti-β-actin antibody was used as a control for protein loading. The graphs of (A) and (B) represent the means ± SD of three independent experiments. **p ≤ 0.01, ***p ≤ 0.005 compared to the control. The bar graphs of (C,D) are the means ± SD of three independent experiments. *p ≤ 0.05 compared to the control. […] Luciferase activity is reported as fold induction after normalization to β-galactosidase activity used as control of transfection efficiency. […]
(§5) Total extracts from treated and untreated cells were obtained by lysis in Ripa buffer (150 mM NaCl, 50 mM Tris-HCl, pH 7.6, 10 mM EDTA, 1% NP-40) containing also a protease inhibitors cocktail and then centrifugated at 17,000 RCF for 10 min, at 4 °C. Total proteins in the supernatant were quantified and 80 μg of each sample were loaded on SDS-PAGE. […]

c-Myc = assay: Western blotting of c-Myc in HT-29 cells; assay type: cell-based, human; settings: 10 µM, 48 hs
Method: (§6) Proliferating HT-29 cells were treated for 48 hs with 10 µM of the indicated compounds. Specific antibodies against cyclin D1 (A), c-Myc (B), β-catenin (C) and PPARγ (D) respectively, were used in Western blotting analysis. An anti-β-actin antibody was used as a control for protein loading. The graphs of (A) and (B) represent the means ± SD of three independent experiments. **p ≤ 0.01, ***p ≤ 0.005 compared to the control. The bar graphs of (C,D) are the means ± SD of three independent experiments. *p ≤ 0.05 compared to the control. […] Luciferase activity is reported as fold induction after normalization to β-galactosidase activity used as control of transfection efficiency. The graph represents the mean ± SD of two independent experiments performed in triplicate. *p ≤ 0.05 compared to LiCl exposure.
(§7) Indeed, cyclin D1 and c-Myc are target genes[38],[39] and, for these reasons, we evaluated c-Myc levels in untreated and treated HT-29 cells. […] Along this reasoning, we investigated β-catenin levels in the same experimental conditions. […]
as §5

β-catenin = assay: Western blotting of β-catenin in HT-29 cells; assay type: cell-based, human; settings: 10 µM, 48 hs
Method: as §6, §7, §5

β-catenin/TCF pathway = assay: Top-FLASH reporter luciferase assay in LiCl-induced HEK-293 cells; assay type: cell-based; settings: HEK-293, Top-FLASH, 20 mM LiCl plus 1 µM compound, 24 hs, relative to LiCl alone
Method: as §6
To definitely confirm that (R,S)-3 and (S)-3 negatively affect c-Myc and cyclin D1 protein levels through down-regulation of their own gene transcription, we performed the TOP-flash reporter luciferase assay in LiCl-induced HEK-293 cells. […]
The Top-FLASH reporter plasmid containing three copies of TCF binding sites was transiently transfected into HEK293 cells with Lipofectamine 2000 (Invitrogen, Carlsbad, CA, USA) in 24-well plates. […] Luciferase activity was measured after 24 h of compounds treatment and normalized to β-galactosidase. […]

HT-29 cells [3] = assay: Annexin V-FITC / propidium iodide apoptosis flow cytometry in HT-29 cells; assay type: cell-based, human; settings: 10 µM, 48 hs
Method: (§8) (B) Early (Ann+/PI−) and late (Ann+/PI+) apoptotic cell populations were evaluated and reported in the graphic representation. The bar graphs are the means ± SD of three independent experiments. *p ≤ 0.05, **p ≤ 0.01, ***p ≤ 0.005 compared to the control. […] An anti-β-actin antibody was used as a control for protein loading. Significance is indicated as *p ≤ 0.05 compared to only vehicle. […] It is listed because a value is printed with its label.
as §2

caspase 3 = assay: Western blotting of caspase 3 in HT-29 cells; assay type: cell-based, human; settings: 10 µM, 48 hs
Method: as §8, §4

p21^waf1/cip1 [4] = assay: Western blotting of p21waf1/cip1 in RKO cells stably transfected with PPARG1; assay type: cell-based, human
From the text: (§9) RKO cells were taken as control for assessing possible effects due to other PPAR receptors expressed at low levels in this cell or to PPARγ-independent effects elicited by GW9662, as reported.
(§10) Figure 4 PPARγ-dependent antiproliferative effect in CRC-derived RKO cells. Western blotting analysis of p21^waf1/cip1 expression in total protein extracts from CRC-derived RKO cells (A) and its derived clone overexpressing an ectopic PPARγ1 (B) using an anti-p21^waf1/cip1 antibody. An anti-β-actin antibody was used as a control for protein loading. The bar graphs represent the mean ± SD of […] of at least 3 independent experiments. *p ≤ 0.05, **p ≤ 0.01 compared to the control.
as §4

p21^waf1/cip1 [5] = assay: Western blotting of p21waf1/cip1 in parental RKO cells (no endogenous PPARG); assay type: cell-based, human; settings: 10 µM, 48 hs
From the text: as §9, §10, §4

HT-29 cells [6] = assay: Viability / proliferation assay in HT-29 cells (cell counting); settings: for Residual viability: remaining surviving cells
From the text: We then evaluated the antiproliferative potential of the compounds by carrying out viability assays in HT-29, a CRC-derived cell line selected as it expresses substantial amounts of PPARγ1 with respect to the α and β/δ subtypes.
After treatment, the cells were washed with PBS, trypsinized and collected in culture medium. Cells were counted by means of a Burker’s hemocytometer and by automated cell counter (Roche Applied, Penzberg, Germany)[60].
Proliferation assay carried out on HT-29 cells treated or not with the indicated compounds at different concentrations ranging from 1 to 10 µM for 48 hs. HT-29 cells exposed or not to these compounds were harvested, washed with PBS, trypsinized and collected in culture medium. Cell counting was performed by means of a Burker’s hemocytometer. Three counts for each well were made and the mean value and the standard deviation were calculated.

[7] = Homo sapiens, HT-29, read-out: Proliferation IC50
[8] = read-out: Proliferation IC50, HT-29 cells, concentration range 1 to 25 µM

SMILES	Efficacy (PPARγ1)	EC50 (PPARγ1)	p21waf1/cip1 protein expression (p21^waf1/cip1 [2])	cyclin D1 protein level (cyclin D1)	Luciferase activity remaining on co-treatment with LiCl (β-catenin/TCF pathway)	Apoptosis induction (HT-29 cells [3])	Residual viability (HT-29 cells [6]; HT-29 cells)	IC50 (HT-29 cells [6]; [7])	IC50 (HT-29 cells [6]; [8])	further results
O=C(O)[C@H](CCCc1ccc(Cl)cc1)Oc1ccc(Cl)cc1 [(S)-3]	55% and 55 ± 1.2%	0.4 ± 0.05 µM	robust increase	reduction more evident	about 60%	stimulated apoptosis	31 ± 1.3%	4.8 ± 0.35 µM		Cell cycle changes (HT-29 cells [1]): significant increase of cells in the sub G0/G1 phase; c-Myc protein level (c-Myc): reduction; β-catenin protein level (β-catenin): reduction; Caspase 3 activation (precursor reduced, cleaved form increased) (caspase 3): strongest effect; p21waf1/cip1 expression (p21^waf1/cip1 [4]; RKO clone expressing exogenous PPARγ1, 10 µM, 48 hs): induced accumulation; p21waf1/cip1 expression (p21^waf1/cip1 [5]): no p21^waf1/cip1 variations
O=C(O)[C@@H](CCc1ccccc1)Oc1ccc(Cl)cc1 [(R)-1]	45 ± 1.3%	0.64 ± 0.06 µM					77 ± 3.1%		19.7 ± 1.7 µM	
CN(CCOc1ccc(CC2SC(=O)NC2=O)cc1)c1ccccn1 (centres unmarked) [RGZ, rosiglitazone, reference compound]			slight	reduction	80%	stimulated apoptosis		9.8 ± 0.4 µM		
O=C(Nc1ccccc1)c1cc([N+](=O)[O-])ccc1Cl [GW9662, reference compound]										Effect of the antagonist on compound-induced p21waf1/cip1 accumulation (p21^waf1/cip1 [4]; RKO clone expressing PPARγ1, co-treatment with (R,S)-3, (S)-3 or (R,S)-7): reverted the effect
O=C(O)C(CCCCc1ccccc1)Oc1ccc(Cl)cc1 (racemic) [(R,S)-4]	60 ± 1.1%	0.35 ± 0.07 µM					60 ± 0.5%		10.1 ± 0.4 µM	
O=C(O)C(CCCc1ccccc1)Oc1ccc(Cl)cc1 (racemic) [(R,S)-2]	48 ± 2.1%	0.54 ± 0.1 µM					70 ± 2.5%		12.1 ± 1.2 µM	

From publication PMC6443668, “Chiral phenoxyacetic acid analogues inhibit colon cancer cell proliferation acting as PPARγ partial agonists” (Scientific Reports, 2019)
